Here are results for seven compounds from ChEMBL document CHEMBL1151017, “The synthesis of N-aryl androsterone pyrazoles as aromatase inhibitors” (Bioorg Med Chem Lett, 1997).

One may read the IC50 as the midpoint of a concentration-inhibition curve. Low values mean inhibition by little substance, high ones a need for much substance.

Experiment [1] deals with T1, Aromatase (Homo sapiens, UniProt P11511).
T1 sequence (P11511 whole entry): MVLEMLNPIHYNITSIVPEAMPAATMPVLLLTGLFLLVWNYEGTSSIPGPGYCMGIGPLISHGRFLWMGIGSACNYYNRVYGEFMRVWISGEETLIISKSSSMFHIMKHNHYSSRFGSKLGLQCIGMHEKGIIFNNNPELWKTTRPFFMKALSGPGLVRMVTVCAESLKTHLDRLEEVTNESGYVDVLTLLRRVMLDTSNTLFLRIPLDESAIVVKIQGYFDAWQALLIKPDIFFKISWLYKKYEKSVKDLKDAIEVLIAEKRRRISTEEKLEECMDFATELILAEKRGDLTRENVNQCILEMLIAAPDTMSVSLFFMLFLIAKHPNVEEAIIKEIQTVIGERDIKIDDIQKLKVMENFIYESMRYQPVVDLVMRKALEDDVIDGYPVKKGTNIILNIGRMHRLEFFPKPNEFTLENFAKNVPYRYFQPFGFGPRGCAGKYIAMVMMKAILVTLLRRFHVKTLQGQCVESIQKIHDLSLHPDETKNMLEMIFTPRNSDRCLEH
Put plainly: Inhibition of cytochrome P450 19A1 aromatase from human placental microsomes.

The target in experiment [2] is T1, Aromatase. Put plainly: Inhibition of aromatase cytochrome P450 from human placental microsomes; 800-1000.

The structures appear in SMILES notation.

In turn, `CC12CCC3C(Cc4c5c(nn4Cc4ccc([N+](=O)[O-])cc4)C(=O)CCC53C)C1CCC2=O` (configuration not stated) returned an IC50 against Aromatase [1] of 490 nM.
The same measure, in the same setting: next, `CC12CCC3C(Cc4c5c(nn4Cc4ccccc4)C(=O)CCC53C)C1CCC2=O` (configuration not stated): 245 nM.
Compound `CC12CCC3C(Cc4nn(C/C=C/c5ccccc5)c5c4C3(C)CCC5=O)C1CCC2=O` (configuration not stated) yielded an IC50 against Aromatase [2] of 800 nM.
Regarding `CC12CCC3C(Cc4[nH]nc5c4C3(C)CCC5=O)C1CCC2=O` (configuration not stated), the IC50 on Aromatase [1] came out at 236 nM.
On the same count and under the same terms, next, `CC12CCC3C(Cc4nn(Cc5ccccc5)c5c4C3(C)CCC5=O)C1CCC2=O` (configuration not stated): 342 nM; `CC12CCC3C(Cc4nn(Cc5ccc([N+](=O)[O-])cc5)c5c4C3(C)CCC5=O)C1CCC2=O` (configuration not stated): 658 nM.
Compound `CC12CCC3C(Cc4c5c(nn4C/C=C/c4ccccc4)C(=O)CCC53C)C1CCC2=O` (configuration not stated) displayed an IC50 against Aromatase [1] of 950 nM.
